Data: patent US7495088B1, “Modified nucleotide compounds” (Enzo Life Sciences, Inc., priority 1989, dated 2009)

Assays:
[1] = test system: Worthington venom exonuclease
[2] = test system: Bovine spleen phosphodiesterase
[3] = target: T1, Spleen phosphodiesterase (5'->3' exonuclease) (Bos taurus) (UniProt Q2KJJ8); test: cleavage_in_vitro
T1 sequence: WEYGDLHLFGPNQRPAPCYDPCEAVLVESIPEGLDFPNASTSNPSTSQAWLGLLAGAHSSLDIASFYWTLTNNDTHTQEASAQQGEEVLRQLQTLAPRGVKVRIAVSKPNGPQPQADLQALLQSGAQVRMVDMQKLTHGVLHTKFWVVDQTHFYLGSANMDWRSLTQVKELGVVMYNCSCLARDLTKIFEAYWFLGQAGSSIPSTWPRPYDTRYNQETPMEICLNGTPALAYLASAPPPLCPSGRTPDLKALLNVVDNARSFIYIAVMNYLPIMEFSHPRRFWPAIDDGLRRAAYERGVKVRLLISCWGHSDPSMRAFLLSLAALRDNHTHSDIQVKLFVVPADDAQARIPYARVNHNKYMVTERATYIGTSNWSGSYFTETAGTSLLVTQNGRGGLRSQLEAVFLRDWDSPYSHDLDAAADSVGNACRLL

[4] = test system: Snake venom phosphodiesterase; conditions: pH 9
E. coli RNase H = E. coli RNase H (Escherichia coli, UniProt P0A7Y4); conditions: 2 units RNase H, 60 minutes 37° C.; for ability to form RNase H substrate, 14-mer binding site: 32P-labeled runoff transcripts of pSP65-ALA-D
Bovine spleen DNase II = target: T2, Bovine spleen DNase II (Bos taurus, UniProt P56541)
T2 sequence (P56541 20-365): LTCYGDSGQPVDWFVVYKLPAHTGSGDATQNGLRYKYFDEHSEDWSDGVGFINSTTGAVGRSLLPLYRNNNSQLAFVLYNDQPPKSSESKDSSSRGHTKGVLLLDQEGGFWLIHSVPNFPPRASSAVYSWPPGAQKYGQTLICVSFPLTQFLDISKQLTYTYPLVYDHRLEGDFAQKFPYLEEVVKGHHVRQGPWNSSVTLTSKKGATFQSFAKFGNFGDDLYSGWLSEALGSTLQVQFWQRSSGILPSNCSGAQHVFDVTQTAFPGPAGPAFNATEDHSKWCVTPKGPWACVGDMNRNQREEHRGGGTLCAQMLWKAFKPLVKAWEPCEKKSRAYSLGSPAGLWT

DNase I (pancreas) = DNase I (pancreas) (Bos taurus, UniProt P00639 P00639:23-282); test: cleavage_in_vitro; Mg, Ca, 37 C; conditions: tags: Bethesda Research Laboratories
DNase II (spleen) = target: T3, DNase II (spleen) (Bos taurus, UniProt P56541 P56541:20-365); test: cleavage_in_vitro; pH 4.6, 25 C; conditions: tags: Bethesda Research Laboratories
T3 sequence: T2 sequence (P56541 20-365)

[5] = target: Snake venom phosphodiesterase (3'->5' exonuclease) (Crotalus adamanteus, UniProt J3SEZ3 J3SEZ3:24-851); test: cleavage_in_vitro; Tris pH 9.0, 37 C; conditions: tags: Sigma
[6] = target: Venom phosphodiesterase (3'->5' exonuclease) (UniProt J3SEZ3 J3SEZ3:24-851); test: cleavage_in_vitro; Worthington venom exonuclease; conditions: tags: Worthington
Venom phosphodiesterase (3'->5' exonuclease), sequence (J3SEZ3 24-851, one chain of several): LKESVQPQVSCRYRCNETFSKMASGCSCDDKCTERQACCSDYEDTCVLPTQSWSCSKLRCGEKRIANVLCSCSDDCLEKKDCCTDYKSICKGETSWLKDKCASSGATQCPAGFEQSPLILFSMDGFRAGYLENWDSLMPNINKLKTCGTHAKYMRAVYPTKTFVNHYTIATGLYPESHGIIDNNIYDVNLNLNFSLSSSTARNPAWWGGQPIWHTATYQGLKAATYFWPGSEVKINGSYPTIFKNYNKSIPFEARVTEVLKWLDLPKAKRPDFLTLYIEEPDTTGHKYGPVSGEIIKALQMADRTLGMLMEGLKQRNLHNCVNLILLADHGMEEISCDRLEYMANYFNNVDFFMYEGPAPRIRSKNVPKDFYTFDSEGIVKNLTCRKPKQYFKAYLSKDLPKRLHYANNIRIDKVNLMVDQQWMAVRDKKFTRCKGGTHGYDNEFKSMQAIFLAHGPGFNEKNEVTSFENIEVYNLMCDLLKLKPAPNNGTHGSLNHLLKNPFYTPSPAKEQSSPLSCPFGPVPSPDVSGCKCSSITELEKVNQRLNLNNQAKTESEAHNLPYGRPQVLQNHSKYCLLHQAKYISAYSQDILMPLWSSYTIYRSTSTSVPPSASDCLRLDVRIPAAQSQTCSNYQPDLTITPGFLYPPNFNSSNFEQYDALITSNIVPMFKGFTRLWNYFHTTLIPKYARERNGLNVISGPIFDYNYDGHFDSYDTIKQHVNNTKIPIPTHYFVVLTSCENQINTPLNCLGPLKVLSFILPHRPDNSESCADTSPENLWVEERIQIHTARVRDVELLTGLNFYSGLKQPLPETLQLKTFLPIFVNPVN

DNase I (pancreas), sequence (P00639 23-282, one chain of several): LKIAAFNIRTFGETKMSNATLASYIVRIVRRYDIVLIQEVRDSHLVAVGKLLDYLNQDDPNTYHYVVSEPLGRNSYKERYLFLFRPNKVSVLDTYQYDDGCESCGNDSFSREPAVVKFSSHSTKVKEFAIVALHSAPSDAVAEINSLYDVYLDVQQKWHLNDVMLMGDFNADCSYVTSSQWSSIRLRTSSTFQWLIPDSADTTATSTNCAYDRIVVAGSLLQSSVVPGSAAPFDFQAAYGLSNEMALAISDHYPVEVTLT
E. coli RNase H, sequence (P0A7Y4 whole entry): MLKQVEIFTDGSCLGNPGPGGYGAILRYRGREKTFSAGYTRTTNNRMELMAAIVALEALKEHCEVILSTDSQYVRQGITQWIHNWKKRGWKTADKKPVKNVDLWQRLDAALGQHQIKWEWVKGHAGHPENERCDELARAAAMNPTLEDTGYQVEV
Snake venom phosphodiesterase (3'->5' exonuclease), sequence (J3SEZ3 24-851, one chain of several): as the sequence (J3SEZ3 24-851, one chain of several) above

ATGCAGCTAAGTCA (chemistry not given here) [14-C/T-4]
increase in half-life as compared to 14-C-4 [1]: two-fold

ATGCAGCTAAGTCA (chemistry not given here) [Oligomer 14-C-4]
observation after spleen exonuclease digestion (electrophoretic mobility of the hybrid) [2]: apparently shortened

ATGCAGCTAAGTCA [14-C-4]
activity (relative half-life) ([3]; 3' methylphosphonate linkage at C4,C7,C13, all modified oligos tested more than 200 times as resistant, apparently shortened): > 200

ATGCAGCTAAGTCA [14-G-4]
activity (relative half-life) ([3]; 3' methylphosphonate linkage at G3,G6,G11, >>200, apparently shortened): > 200

ATGCAGCTAAGTCA [14-G-4] (chemistry not given here) [Oligomer 14-G-4]
observation after spleen exonuclease digestion (electrophoretic mobility of the hybrid) [2]: apparently shortened

ATGCAGCTAAGTCA [14-P-4]
activity (relative half-life) ([3]; half-time about 30 min, citrate pH 6.0, 37 C): 1

ATGCAGCTAAGTCA [14-P-4] (chemistry not given here) [Oligomer 14-P-4]
Exonuclease Relative Half-Life, Venom (3′->5′-) [4]: 1

ATGCAGCTAAGTCA [14-T-4]
activity (relative half-life) ([3]; 3' methylphosphonate linkage at T2,T8,T12, >>200, apparently shortened): > 200

ATGCAGCTAAGTCA [14-T-4] (chemistry not given here) [Oligomer 14-T-4]
observation after spleen exonuclease digestion (electrophoretic mobility of the hybrid) [2]: apparently shortened

CTGGGGCTGCAT [12-Me^5a-1]
ability to form RNase H substrate / cleavage of RNA, 12-mer binding site (E. coli RNase H; NcoI runoff transcript): permitted cleavage of most of the RNA

TGACTTAGCTGCAT (chemistry not given here) [Oligomer 14-P-3]
half-life for digestion by DNase II (Bovine spleen DNase II; bovine): 10 h | Endonuclease Relative Half-Life, DNase II (Bovine spleen DNase II; pH 4.6): 1 | Tissue Culture Stabilities, Relative Half-Life, +FCS. B95-8 (B95-8 cells): 1

TGACTTAGCTGCAT [14-A-3]
activity (relative half-life) ([3]; 3' methylphosphonate linkage at A3,A7,A13, >>200): > 200

TGACTTAGCTGCAT [14-A-3] (chemistry not given here) [Oligomer 14-A-3]
ability to form RNase H substrate, 14-mer binding site (E. coli RNase H): formed RNase H substrates

TGACTTAGCTGCAT [14-C-3]
activity (relative half-life) ([3]; 3' methylphosphonate linkage at C4,C9,C12, >>200): > 200

TGACTTAGCTGCAT [14-C-3] (chemistry not given here) [Oligomer 14-C-3]
ability to form RNase H substrate, 14-mer binding site (E. coli RNase H): formed RNase H substrates

TGACTTAGCTGCAT [14-Me6a-3]
activity (relative half-life) ([3]; 3' methylphosphonate linkage at positions 2,4,6,8,10,12, >>200): > 200

TGACTTAGCTGCAT [14-Me^5a-3] (chemistry not given here)
ability to form RNase H substrate, 14-mer binding site (E. coli RNase H): able to form RNase H substrates | 3′-exonucleolytic cleavage in tissue culture (B95-8 cells): single stepwise cleavage | Tissue Culture Stabilities, Relative Half-Life, +FCS. B95-8 (B95-8 cells): 30

TGACTTAGCTGCAT [14-Me^5b-3] (chemistry not given here)
ability to form RNase H substrate, 14-mer binding site (E. coli RNase H): able to form RNase H substrates | 3′-exonucleolytic cleavage in tissue culture (B95-8 cells): absence of cleavage | Tissue Culture Stabilities, Relative Half-Life, +FCS. B95-8 (B95-8 cells): 30

TGACTTAGCTGCAT [14-Me^6a-3] (chemistry not given here)
ability to form RNase H substrate, 14-mer binding site (E. coli RNase H): did not | 3′-exonucleolytic cleavage in tissue culture (B95-8 cells): single stepwise cleavage | Tissue Culture Stabilities, Relative Half-Life, +FCS. B95-8 (B95-8 cells): 30

TGACTTAGCTGCAT [14-Me^6b-3] (chemistry not given here)
3′-exonucleolytic cleavage in tissue culture (B95-8 cells): absence of cleavage | Tissue Culture Stabilities, Relative Half-Life, +FCS. B95-8 (B95-8 cells): 30

TGACTTAGCTGCAT [14-P-3]
activity (relative half-life) ([3]; half-time about 30 min, citrate pH 6.0, 5 mM EDTA, 37 C): 1

TGACTTAGCTGCAT [14-P-3] (chemistry not given here) [Oligomer 14-P-3, reference compound]
ability to form RNase H substrate, 14-mer binding site (E. coli RNase H): formed RNase H substrates | Exonuclease Relative Half-Life, Venom (3′->5′-) [4]: 1

B1: 14-Me6a-3 (ssDNA)
DNA: TGACTTAGCTGCAT
modifications: 3' methylphosphonate linkage at positions 2,4,6,8,10,12
activity (DNase I (pancreas)): > 600 relative half-life | activity (DNase II (spleen)): > 5 relative half-life

B2: 14-Me5b-3 (ssDNA)
DNA: TGACTTAGCTGCAT
modifications: 3' methylphosphonate linkage at positions 2,4,6,8,13
activity (DNase I (pancreas)): 12 relative half-life | activity (DNase II (spleen)): > 5 relative half-life

B3: 14-A-3 (ssDNA)
DNA: TGACTTAGCTGCAT
modifications: 3' methylphosphonate linkage at A3,A7,A13
activity (DNase II (spleen)): > 5 relative half-life

B4: 14-T-4 (ssDNA)
DNA: ATGCAGCTAAGTCA
modifications: 3' methylphosphonate linkage at T2,T8,T12
activity [5]: > 500 relative half-life

B5: 14-C/T-4 (ssDNA)
DNA: ATGCAGCTAAGTCA
modifications: 3' methylphosphonate linkage at T12,C13
activity [6]: ~2 half-life relative to 14-C-4

B6: 14-G-4 (ssDNA)
DNA: ATGCAGCTAAGTCA
modifications: 3' methylphosphonate linkage at G3,G6,G11
activity [5]: 100 relative half-life

B7: 14-Me6b-3 (ssDNA)
DNA: TGACTTAGCTGCAT
modifications: 3' methylphosphonate linkage at positions 2,4,6,9,11,13
activity (DNase I (pancreas)): > 600 relative half-life | activity (DNase II (spleen)): > 5 relative half-life

B8: 14-C-3 (ssDNA)
DNA: TGACTTAGCTGCAT
modifications: 3' methylphosphonate linkage at C4,C9,C12
activity (DNase I (pancreas)): 6 relative half-life | activity (DNase II (spleen)): 2 relative half-life | activity [5]: > 500 relative half-life

B9: 14-Me5a-3 (ssDNA)
DNA: TGACTTAGCTGCAT
modifications: 3' methylphosphonate linkage at positions 2,4,6,10,12
activity (DNase I (pancreas)): 300 relative half-life | activity (DNase II (spleen)): > 5 relative half-life
